From ChEMBL document CHEMBL5131501, “Discovery and evaluation of chalcone derivatives as novel potential anti-Toxoplasma gondii agents” (Eur J Med Chem, 2022)
Calls of active or inactive are those of the source. No cut-off for these calls is given here.

System: Toxoplasma gondii
Assay: Anti-tachyzoite activity against Toxoplasma gondii RH infected in kunming mouse model assessed as decrease in malondialdehyde lipid peroxidation in liver at 100 mg/kg, ip administered daily for 4 days after 4 hrs post infection
Format: functional, organism-based
Conditions: time 4.0 day

| SMILES | Activity |
| --- | --- |
| CO[C@@H]1[C@@H](O[C@@H]2O[C@H](C)[C@@H](O[C@H]3C[C@@](C)(O)[C@@H](O)[C@H](C)O3)[C@H](N(C)C)[C@H]2O)[C@@H](CC=O)C[C@@H](C)[C@@H](O[C@H]2CC[C@H](N(C)C)[C@@H](C)O2)/C=C/C=C/C[C@@H](C)OC(=O)C[C@H]1OC(C)=O | Active |

System: Toxoplasma gondii
Assay: Anti-tachyzoite activity against Toxoplasma gondii RH infected in kunming mouse model assessed as decrease in serum ALT level at 100 mg/kg, ip administered daily for 4 days after 4 hrs post infection
Format: functional, organism-based
Conditions: time 4.0 day

| SMILES | Activity |
| --- | --- |
| CO[C@@H]1[C@@H](O[C@@H]2O[C@H](C)[C@@H](O[C@H]3C[C@@](C)(O)[C@@H](O)[C@H](C)O3)[C@H](N(C)C)[C@H]2O)[C@@H](CC=O)C[C@@H](C)[C@@H](O[C@H]2CC[C@H](N(C)C)[C@@H](C)O2)/C=C/C=C/C[C@@H](C)OC(=O)C[C@H]1OC(C)=O | Active |

System: Toxoplasma gondii
Assay: Anti-tachyzoite activity against Toxoplasma gondii RH infected in human HFF cells assessed as mortality rate at 50 uM incubated for 2 hrs by trypan blue staining based light microscopic analysis
Format: functional, organism-based
Conditions: not given

| SMILES | Activity |
| --- | --- |
| O=C(/C=C/c1ccccc1Cl)c1cc(F)cc(F)c1 | Active |
| CC(C)Nc1ccc(C(=O)/C=C/c2ccc(Cl)c(Cl)c2)cc1 | Active |
| COc1ccc(C(=O)/C=C/c2ccc(O)cc2)cc1OC | Active |
| CC(=O)Nc1ccc(C(=O)/C=C/c2ccccc2Br)cc1 | Active |
| COc1cccc(/C=C/C(=O)c2cccc(NC(C)C)c2)c1OC | Active |
| COc1cccc(/C=C/C(=O)c2cccc(NC(C)=O)c2)c1OC | Active |
| CCNc1ccc(C(=O)/C=C/c2ccc(Cl)c(Cl)c2)cc1 | Active |
| COc1cccc(CCC(=O)c2cccc(N)c2)c1OC | Active |
| CCNc1cccc(C(=O)/C=C/c2cccc(OC)c2OC)c1 | Active |
| COc1cccc(CCC(=O)c2ccc(N)cc2)c1OC | Active |
| COc1cccc(/C=C/C(=O)c2ccc(NC(C)=O)cc2)c1OC | Active |
| CC(=O)Nc1ccc(C(=O)/C=C/c2ccc(Cl)c(Cl)c2)cc1 | Active |
| COc1ccc(C(=O)/C=C/c2ccccc2Cl)cc1O | Active |
| COc1ccc(C(=O)/C=C/c2ccc(O)cc2)cc1 | Active |
| Nc1ccc(C(=O)CCc2ccc(Cl)c(Cl)c2)cc1 | Active |
| Nc1ccc(C(=O)CCc2ccccc2Br)cc1 | Active |
| O=C(/C=C/c1ccc(Cl)c(Cl)c1)c1cc(F)cc(F)c1 | Active |
| COc1ccc(C(=O)/C=C/c2ccccc2OC)cc1O | Active |
| CC(C)Nc1ccc(C(=O)/C=C/c2ccccc2Br)cc1 | Active |
| COc1cccc(/C=C/C(=O)c2ccc(NC(C)C)cc2)c1OC | Active |
| CCNc1ccc(C(=O)/C=C/c2ccccc2Br)cc1 | Active |
| COc1ccc(C(=O)/C=C/c2ccccc2Cl)cc1 | Active |
| CCNc1ccc(C(=O)/C=C/c2cccc(OC)c2OC)cc1 | Active |
| O=C(/C=C/c1ccccc1Br)c1cc(F)cc(F)c1 | Active |

System: Toxoplasma gondii
Assay: Anti-tachyzoite activity against Toxoplasma gondii RH infected in Kunming mouse model assessed as inhibition of growth rate in peritoneal fluid at 100 mg/kg, ip administered daily for 4 days after 4 hrs post infection
Format: functional
Set-up: scale not given: the % may be the effect or the level left
Conditions: time 4 day

| SMILES | Activity [%] |
| --- | --- |
| CO[C@@H]1[C@@H](O[C@@H]2O[C@H](C)[C@@H](O[C@H]3C[C@@](C)(O)[C@@H](O)[C@H](C)O3)[C@H](N(C)C)[C@H]2O)[C@@H](CC=O)C[C@@H](C)[C@@H](O[C@H]2CC[C@H](N(C)C)[C@@H](C)O2)/C=C/C=C/C[C@@H](C)OC(=O)C[C@H]1OC(C)=O | 74.6 |

System: Toxoplasma gondii
Assay: Anti-tachyzoite activity against Toxoplasma gondii RH infected in kunming mouse model assessed as decrease in serum AST level at 100 mg/kg, ip administered daily for 4 days after 4 hrs post infection
Format: functional, organism-based
Conditions: time 4.0 day

| SMILES | Activity |
| --- | --- |
| CO[C@@H]1[C@@H](O[C@@H]2O[C@H](C)[C@@H](O[C@H]3C[C@@](C)(O)[C@@H](O)[C@H](C)O3)[C@H](N(C)C)[C@H]2O)[C@@H](CC=O)C[C@@H](C)[C@@H](O[C@H]2CC[C@H](N(C)C)[C@@H](C)O2)/C=C/C=C/C[C@@H](C)OC(=O)C[C@H]1OC(C)=O | Active |
